What was measured:
[1] = system: C57BL/6 mice; experiment: LPS neuroinflammation model; type: in vivo; conditions: 2 or 5 mg/kg IP daily for 4 days, LPS 5 mg/kg on Day 2
Procedure: All experiments were carried out with 10-week-old female C57BL/6 mice (20–25 g). The animals were divided into six experimental groups of three mice in each experiment: Group 1, treated with vehicle; Group 2, treated with SB26019 {2 mg/kg body weight (mpk)}; Group 3, treated with SB26019 (5 mpk); Group 4, treated with LPS and vehicle; Group 5, treated with LPS and SB26019 (2 mpk); and Group 6, treated with LPS and SB26019 (5 mpk). SB26019 (2 or 5 mpk) or vehicle {distilled water containing 5% DMSO and 40% polyethylene glycol 400 (TCI; N0433)} was administered with IP injection daily for 4 days. Five mpk of LPS (Sigma; L2880) in PBS was administered by IP injection on Day 2 for a single challenge. All mice were sacrificed on Day 5.
Mice were anesthetized with a mixture of alfaxalone and xylazine (5:1 ratio) and transcardially perfused with cold PBS. Mouse brains were harvested and fixed using 10% NBF (Sigma; HT501128) for 2 h. After washing with PBS for 30 min three times, fixed brains were embedded in OCT compound (Leica; #3801480) for frozen coronal sectioning at a thickness of 7 μm. […]
The perfused brains were minced with a 10 T scalpel blade. […] Microglia in the interphase between 70% and 37% Percoll solution was transferred and washed with HBSS media. mRNA was extracted from the microglia and analyzed with qPCR. […]

[2] = target: T1, p65–α-tubulin interaction (Mus musculus, UniProt P05213+P99024); experiment: Immunoprecipitation of p65, IκB and α-tubulin; type: cell-based, murine; conditions: 1 h treatment, 10 μM
T1 construct: endogenous in cells
T1 sequence (P05213 whole entry): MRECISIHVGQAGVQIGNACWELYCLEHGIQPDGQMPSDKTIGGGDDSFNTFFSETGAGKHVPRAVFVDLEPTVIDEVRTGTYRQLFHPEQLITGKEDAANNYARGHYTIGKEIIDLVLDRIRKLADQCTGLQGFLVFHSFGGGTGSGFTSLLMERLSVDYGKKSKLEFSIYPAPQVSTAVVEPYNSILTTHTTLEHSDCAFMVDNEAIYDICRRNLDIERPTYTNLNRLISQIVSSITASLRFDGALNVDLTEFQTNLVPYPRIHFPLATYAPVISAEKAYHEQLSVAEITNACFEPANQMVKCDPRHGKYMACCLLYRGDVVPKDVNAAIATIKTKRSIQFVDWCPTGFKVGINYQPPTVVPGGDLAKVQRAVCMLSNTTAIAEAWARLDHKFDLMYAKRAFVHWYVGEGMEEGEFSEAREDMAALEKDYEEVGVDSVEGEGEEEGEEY
T1 sequence (P99024 whole entry): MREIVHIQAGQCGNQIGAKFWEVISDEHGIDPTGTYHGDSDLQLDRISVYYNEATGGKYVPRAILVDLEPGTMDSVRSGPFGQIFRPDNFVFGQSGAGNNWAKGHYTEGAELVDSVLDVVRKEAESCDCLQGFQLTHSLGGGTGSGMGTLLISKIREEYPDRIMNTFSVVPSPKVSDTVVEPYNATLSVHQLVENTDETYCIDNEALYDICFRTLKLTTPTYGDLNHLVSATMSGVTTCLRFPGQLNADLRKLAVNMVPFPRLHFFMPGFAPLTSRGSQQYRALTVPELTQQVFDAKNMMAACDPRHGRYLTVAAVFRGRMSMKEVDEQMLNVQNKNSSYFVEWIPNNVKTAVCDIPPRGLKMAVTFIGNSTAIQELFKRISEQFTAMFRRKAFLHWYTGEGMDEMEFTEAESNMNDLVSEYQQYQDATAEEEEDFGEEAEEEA
Procedure: After a 1-h incubation in the absence or presence of SB26019, cells were harvested and lysed for 1 h on ice with IP lysis buffer {50 mM Tris–HCl pH 8.0 (Acros; #77-86-1), 200 mM NaCl, 0.5% NP40 (Sigma; #I8896), and 1× protease inhibitor cocktail (Roche; #11873580001)}. The protein concentration was measured using a bicinchoninic acid (BCA) protein assay kit (Thermo; #23225). Then, 150 μg of the lysates were incubated with 1.5 μg of anti-p65 antibody (Abcam; ab16502), anti-IκB antibody (CST; #4814), or α-tubulin antibody (CST; #3873) at 4 °C overnight. Subsequently, the proteins of interest were precipitated using protein A and G beads (Santa Cruz; sc-2001, sc-2002). Samples were analyzed with western blotting using anti-p65, IκB, and α-tubulin primary antibodies.
To understand the inhibitory mechanism of p65 nuclear translocation by SB26019, the expression levels of p65, IκB, and tubulin monomers were monitored upon SB26019 treatment in murine macrophage cells. […] Additionally, nuclear translocation of p65 was inhibited by SB26019 treatment despite an increase in phospho-IκB and a decrease in total IκB (Fig. 3e). […] Consequently, IκB is released from p65 and degraded by the proteasome. […] To test this hypothesis, we monitored protein‒protein interactions among p65, IκB, and tubulin with immunoprecipitation. […]

## COc1ccc2c(c1O)OC(C)(C)C=C2c1cccc2c1oc1ccccc12 [Compound 8]
[1]
  Microglial activation (Iba-1-positive region of the brain): efficiently regulated microglial activation in all brain regions in a dose-dependent manner
  Transcription levels of cytokines and chemokines in brain microglia (qPCR): efficiently inhibited the LPS-mediated upregulation of cytokines and chemokines
[2]
  Interaction between p65 and α-tubulin: increased

From PMC9743128, “Phenotype-based screening rediscovered benzopyran-embedded microtubule inhibitors as anti-neuroinflammatory agents by modulating the tubulin–p65 interaction” (Experimental & Molecular Medicine, 2022)
